Among the test systems are 786-0 renal; HL-60(TB) leukemia; HT29 colon; MDA-MB-435; NCI-H522 lung; RPMI-8226 leukemia; SN12C renal; SNB-75 CNS; SW-620 colon; T-47D breast.
Holding throughout (test): NCI-60 cell line screen, 48 h

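1) Cells in 96-well plates. 2) Compound, 48 h, 5 concentrations. 3) Linear interpolation between surrounding doses. 4) Unreached endpoint = highest concentration. Here, GI50 denotes the concentration required for 50% inhibition of growth. Definition used: TGI = concentration required for complete inhibition of growth.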 Bounds are passed on as bounds.

`Cc1ncc(C(=O)Nc2ccc(CN3CCN(C)CC3)c(C(F)(F)F)c2)cc1C#Cc1cnc(N)c2cnccc12`: the GI50 was 225 nM in the test on 786-0 renal; 38.3 nM in the test with HL-60(TB) leukemia; 21 nM in the test on HT29 colon; 26.1 nM in the test with MDA-MB-435; 65.4 nM in the test on NCI-H522 lung; 249 nM with RPMI-8226 leukemia. The GI50 is 37 nM in the test with SN12C renal, 89.9 nM in the test on SNB-75 CNS, 64.9 nM in the test on SW-620 colon and 317 nM in the test on T-47D breast. Besides, the TGI in the test with 786-0 renal was found to be 11000 nM; in the test on HL-60(TB) leukemia, 1030 nM; in the test with HT29 colon, 1190 nM; with MDA-MB-435, 4110 nM; in the test on NCI-H522 lung, 13100 nM; in the test with RPMI-8226 leukemia, 2130 nM. Further, the TGI in the test on SN12C renal was 11500 nM; in the test on SNB-75 CNS, 616 nM; in the test on SW-620 colon it was 1390 nM; in the test with T-47D breast it was > 32800 nM.

(Values after PubChem BioAssay (NCI).)
